The values that follow come from PubChem BioAssay AID1259407 (Chemical Carcinogenesis Research Information System (CCRIS), 2018).

The subject of the series is CCRIS mutagenicity, Ames/micronucleus/aberration tests. Description: CCRIS mutagenicity studies.
Setting [1] is: Test System: AMES SALMONELLA TYPHIMURIUM, Strain/Indicator: TA100, Metabolic Activation: NONE, Method: STANDARD PLATE.
The mark [2] stands for this setting: Test System: AMES SALMONELLA TYPHIMURIUM, Strain/Indicator: TA100, Metabolic Activation: RAT, LIVER, S-9, AROCLOR 1254, Method: STANDARD PLATE.
Where [3] appears, read: Test System: AMES SALMONELLA TYPHIMURIUM, Strain/Indicator: TA1535, Metabolic Activation: NONE, Method: STANDARD PLATE.
Where [4] appears, read: Test System: AMES SALMONELLA TYPHIMURIUM, Strain/Indicator: TA1535, Metabolic Activation: RAT, LIVER, S-9, AROCLOR 1254, Method: STANDARD PLATE.
Setting [5] is: Test System: AMES SALMONELLA TYPHIMURIUM, Strain/Indicator: TA98, Metabolic Activation: NONE, Method: STANDARD PLATE.

Each structure is given as a SMILES string. Active and inactive are the calls of the source. How the calls were made is not given here.

In the case of `OCC(Cl)CCl` (configuration not stated), the mutagenic call is “active; positive” (Test System: AMES SALMONELLA TYPHIMURIUM, Strain/Indicator: TA97, Metabolic Activation: HAMSTER, LIVER, S-9, AROCLOR 1254 (10%), Method: PREINCUBATION); “active; positive” (Test System: AMES SALMONELLA TYPHIMURIUM, Strain/Indicator: TA97, Metabolic Activation: NONE, Method: PREINCUBATION); “active; positive” (Test System: AMES SALMONELLA TYPHIMURIUM, Strain/Indicator: TA97, Metabolic Activation: RAT, LIVER, S-9, AROCLOR 1254 (10%), Method: PREINCUBATION); “active; positive” (Test System: AMES SALMONELLA TYPHIMURIUM, Strain/Indicator: TA98, Metabolic Activation: HAMSTER, LIVER, S-9, AROCLOR 1254 (10%), Method: PREINCUBATION); “active; positive” (Test System: AMES SALMONELLA TYPHIMURIUM, Strain/Indicator: TA98, Metabolic Activation: RAT, LIVER, S-9, AROCLOR 1254 (10%), Method: PREINCUBATION); “active; positive” (Test System: AMES SALMONELLA TYPHIMURIUM, Strain/Indicator: TA100, Metabolic Activation: HAMSTER, LIVER, S-9, AROCLOR 1254 (10%), Method: PREINCUBATION). Further, the mutagenic call (Test System: AMES SALMONELLA TYPHIMURIUM, Strain/Indicator: TA100, Metabolic Activation: NONE, Method: PREINCUBATION) is “active; positive”; the mutagenic call under setting [1] was “active; positive”; the mutagenic call (Test System: AMES SALMONELLA TYPHIMURIUM, Strain/Indicator: TA100, Metabolic Activation: RAT, LIVER, S-9, AROCLOR 1254 (10%), Method: PREINCUBATION) is “active; positive”; the mutagenic call under setting [2] was “active; positive”; the mutagenic call (Test System: AMES SALMONELLA TYPHIMURIUM, Strain/Indicator: TA100, Metabolic Activation: RAT, LIVER, S-9, KANECHLOR 500, Method: PREINCUBATION) was “active; positive”; the mutagenic call (Test System: AMES SALMONELLA TYPHIMURIUM, Strain/Indicator: TA1535, Metabolic Activation: HAMSTER, LIVER, S-9, AROCLOR 1254 (10%), Method: PREINCUBATION) was “active; positive”. Moreover, the mutagenic call is, setting by setting: (Test System: AMES SALMONELLA TYPHIMURIUM, Strain/Indicator: TA1535, Metabolic Activation: NONE, Method: PREINCUBATION) “active; positive”; under setting [3], “active; positive”; (Test System: AMES SALMONELLA TYPHIMURIUM, Strain/Indicator: TA1535, Metabolic Activation: RAT, LIVER, S-9, AROCLOR 1254 (10%), Method: PREINCUBATION) “active; positive”; under setting [4], “active; positive”.

As to `CCCCCC/C=C\CCCCCCOC(C)=O`, the mutagenic call was “inactive; negative” under setting [5]; “inactive; negative” (Test System: AMES SALMONELLA TYPHIMURIUM, Strain/Indicator: TA98, Metabolic Activation: RAT, LIVER, S-9, Method: STANDARD PLATE); “inactive; negative” under setting [1]; “inactive; negative” (Test System: AMES SALMONELLA TYPHIMURIUM, Strain/Indicator: TA100, Metabolic Activation: RAT, LIVER, S-9, Method: STANDARD PLATE); “inactive; negative” (Test System: AMES SALMONELLA TYPHIMURIUM, Strain/Indicator: TA102, Metabolic Activation: NONE, Method: STANDARD PLATE); “inactive; negative” (Test System: AMES SALMONELLA TYPHIMURIUM, Strain/Indicator: TA102, Metabolic Activation: RAT, LIVER, S-9, Method: STANDARD PLATE).

As to `NCCCNCCCCNCCCN`, the mutagenic call runs as follows: (Test System: E. COLI, Strain/Indicator: WP2 UVRA (PKM101), Metabolic Activation: NONE, Method: STANDARD PLATE) “inactive; negative”; (Test System: E. COLI, Strain/Indicator: WP2 UVRA/OXYR (PKM101), Metabolic Activation: NONE, Method: STANDARD PLATE) “inactive; negative”.

Turning to `CC(C)CCC[C@@H](C)[C@H]1CC[C@H]2[C@@H]3[C@H](OO)C=C4C[C@@H](O)CC[C@]4(C)[C@H]3CC[C@]12C`, for the setting “Test System: AMES SALMONELLA TYPHIMURIUM, Strain/Indicator: TA1537, Metabolic Activation: NONE, Method: PREINCUBATION”, the mutagenic call was “active; positive”.

With `C=C1C[C@@H]2CC[C@]34C[C@@H]5O[C@@H]6[C@H](O[C@H]7CC[C@H](CC(=O)O[C@@H]8[C@H](C)[C@@H]9O[C@@H]%10C[C@]%11(C[C@@H]%12O[C@@]%13(C[C@H](C)[C@@H]%12O%11)C[C@H](C)[C@@H]%11O[C@@H]([C@@H](O)C[C@H](O)CO)C[C@H]%11O%13)O[C@@H]%10C[C@@H]9O[C@H]8C[C@@H]8O[C@H](CC[C@@H]1O2)C[C@H](C)C8=C)O[C@@H]7[C@H]6O3)[C@H]5O4`, the mutagenic call is “inactive; negative” (Test System: Mouse lymphoma, Strain/Indicator: L5178Y (tk+/tk-), Metabolic Activation: None, Method: Suspension/plate) and “active; equivocal (previous evaluation positive)” (Test System: Mouse lymphoma, Strain/Indicator: L5178Y (tk+/tk-), Metabolic Activation: Rat, Liver, S-9, Aroclor 1254, Method: Suspension/plate).

For the compound `O=S(=O)(Nc1ccc(Cl)cc1Cl)c1cccc2cccnc12`, the mutagenic call by setting is: under setting [5], “inactive; negative”; (Test System: AMES SALMONELLA TYPHIMURIUM, Strain/Indicator: TA98, Metabolic Activation: RAT, LIVER, S-9, AROCLOR 1254, Method: STANDARD PLATE) “inactive; negative”; under setting [1], “inactive; negative”; under setting [2], “inactive; negative”; under setting [3], “inactive; negative”; under setting [4], “inactive; negative”. In addition, the mutagenic call by setting is: (Test System: AMES SALMONELLA TYPHIMURIUM, Strain/Indicator: TA1537, Metabolic Activation: NONE, Method: STANDARD PLATE) “inactive; negative”; (Test System: AMES SALMONELLA TYPHIMURIUM, Strain/Indicator: TA1537, Metabolic Activation: RAT, LIVER, S-9, AROCLOR 1254, Method: STANDARD PLATE) “inactive; negative”.

Turning to `Cc1c(N)nc([C@H](CC(N)=O)NC[C@H](N)C(N)=O)nc1C(=O)N[C@H](C(=O)N[C@H](C)[C@@H](O)[C@H](C)C(=O)N[C@H](C(=O)NCCc1nc(-c2nc(C(=O)NCCCN(C)CCCN(Cc3ccc(OCc4ccccc4)c(OCc4ccccc4)c3)Cc3ccc(OCc4ccccc4)c(OCc4ccccc4)c3)cs2)cs1)[C@@H](C)O)[C@@H](O[C@@H]1O[C@@H](CO)[C@@H](O)[C@H](O)[C@@H]1O[C@H]1O[C@H](CO)[C@@H](O)[C@H](OC(N)=O)[C@@H]1O)c1cnc[nH]1`, the mutagenic call is, setting by setting: (Test System: AMES SALMONELLA TYPHIMURIUM, Strain/Indicator: TA94, Metabolic Activation: NONE, Method: PREINCUBATION) “inactive; negative”; (Test System: AMES SALMONELLA TYPHIMURIUM, Strain/Indicator: TA102, Metabolic Activation: NONE, Method: PREINCUBATION) “active; positive”.
